Bounds are passed on as bounds.

One series deals with male Harlan CD-1 mice.
Experiment: not given
As to conditions: literature; cited from earlier work.
`Cc1cccc(C#Cc2ccccc2)n1` [MPEP, 2-methyl-6-(phenylethynyl) pyridine]: the “effect in marble burying model” value is “effective”.

`CN1CC(=O)N=C1NC(=O)Nc1cccc(Cl)c1` [fenobam, 1-(3-chlorophenyl)-3-(1-methyl-4-oxo-4,5-dihydro-1H-imidazol-2-yl)urea]: the “effect in marble burying model” value is listed as “effective”.

A further series has as its system N-methyl-D-aspartate (NMDA) receptor.
Experiment: not given
As to conditions: at higher concentrations; cited from earlier work.
`Cc1cccc(C#Cc2ccccc2)n1` [MPEP, 2-methyl-6-(phenylethynyl) pyridine]: the NMDA receptor activity result is listed as “directly inhibit”.

In another series the target is T1, cytochrome P450 1A2 (Homo sapiens, UniProt P05177).
T1 sequence (P05177 1-516): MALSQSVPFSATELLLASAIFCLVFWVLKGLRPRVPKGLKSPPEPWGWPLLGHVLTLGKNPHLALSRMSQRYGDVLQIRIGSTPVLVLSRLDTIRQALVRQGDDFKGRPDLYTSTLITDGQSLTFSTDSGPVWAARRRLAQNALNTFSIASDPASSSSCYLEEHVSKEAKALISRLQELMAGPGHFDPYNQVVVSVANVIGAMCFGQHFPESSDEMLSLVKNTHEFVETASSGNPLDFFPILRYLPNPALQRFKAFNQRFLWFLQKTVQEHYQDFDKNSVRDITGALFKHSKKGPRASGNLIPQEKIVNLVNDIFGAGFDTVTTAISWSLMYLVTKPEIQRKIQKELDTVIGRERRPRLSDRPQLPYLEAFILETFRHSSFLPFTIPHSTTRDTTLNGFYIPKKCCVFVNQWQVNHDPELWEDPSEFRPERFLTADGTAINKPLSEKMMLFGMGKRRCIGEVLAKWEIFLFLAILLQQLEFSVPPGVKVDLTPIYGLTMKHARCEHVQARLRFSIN
Experiment: not given
As to conditions: cited from earlier work.
For `Cc1nc(C#Cc2cccnc2)cs1` [MTEP, 3-[(2-methyl-1,3-thiazol-4-yl)ethynyl]pyridine], the “cytochrome P450 1A2 inhibition” value was “potent inhibitor”.

Tested on in the next series: not given
Experiment: not given
The conditions noted are these: intravenous administration, rhesus monkeys; cited from earlier work.
Consider `Cc1nc(C#Cc2cccnc2)cs1` [MTEP, 3-[(2-methyl-1,3-thiazol-4-yl)ethynyl]pyridine], for which the clearance result is on record as “efficiently cleared”.

The target in the next series is mGluR4 (Homo sapiens, UniProt Q14833).
mGluR4, sequence (Q14833 33-912): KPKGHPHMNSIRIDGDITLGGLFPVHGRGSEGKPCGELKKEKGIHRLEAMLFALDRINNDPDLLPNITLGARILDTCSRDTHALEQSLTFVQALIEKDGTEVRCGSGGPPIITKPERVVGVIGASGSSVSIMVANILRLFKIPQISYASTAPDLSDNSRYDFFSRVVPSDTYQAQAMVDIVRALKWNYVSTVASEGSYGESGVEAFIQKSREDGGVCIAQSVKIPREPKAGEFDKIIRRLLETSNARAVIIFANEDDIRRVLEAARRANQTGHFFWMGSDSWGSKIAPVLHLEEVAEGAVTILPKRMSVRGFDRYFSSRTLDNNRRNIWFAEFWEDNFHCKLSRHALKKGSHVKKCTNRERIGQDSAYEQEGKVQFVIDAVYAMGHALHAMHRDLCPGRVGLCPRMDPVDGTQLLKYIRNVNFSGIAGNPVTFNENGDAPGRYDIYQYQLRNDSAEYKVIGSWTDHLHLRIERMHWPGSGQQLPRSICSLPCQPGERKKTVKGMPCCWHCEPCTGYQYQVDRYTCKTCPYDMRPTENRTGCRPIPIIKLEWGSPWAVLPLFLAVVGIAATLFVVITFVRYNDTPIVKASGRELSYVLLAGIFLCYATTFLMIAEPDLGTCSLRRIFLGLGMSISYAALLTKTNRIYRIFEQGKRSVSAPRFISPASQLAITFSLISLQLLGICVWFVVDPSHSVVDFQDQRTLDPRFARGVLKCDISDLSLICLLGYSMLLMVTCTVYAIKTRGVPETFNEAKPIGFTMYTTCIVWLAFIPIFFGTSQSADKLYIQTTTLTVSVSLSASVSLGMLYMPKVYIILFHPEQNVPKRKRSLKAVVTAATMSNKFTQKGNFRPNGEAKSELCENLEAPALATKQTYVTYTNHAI
Experiment: not given
The conditions noted are these: cited from earlier work.
As to `Cc1cccc(C#Cc2ccccc2)n1` [MPEP, 2-methyl-6-(phenylethynyl) pyridine], the “activity at mGluR4” value is given as “positive allosteric modulator”.

The next series deals with T2, rat mGluR5 (Rattus norvegicus, UniProt P31424).
T2 construct: expressed in transfected cells
T2 sequence (P31424 21-1171 isoform P31424-2 limits assumed): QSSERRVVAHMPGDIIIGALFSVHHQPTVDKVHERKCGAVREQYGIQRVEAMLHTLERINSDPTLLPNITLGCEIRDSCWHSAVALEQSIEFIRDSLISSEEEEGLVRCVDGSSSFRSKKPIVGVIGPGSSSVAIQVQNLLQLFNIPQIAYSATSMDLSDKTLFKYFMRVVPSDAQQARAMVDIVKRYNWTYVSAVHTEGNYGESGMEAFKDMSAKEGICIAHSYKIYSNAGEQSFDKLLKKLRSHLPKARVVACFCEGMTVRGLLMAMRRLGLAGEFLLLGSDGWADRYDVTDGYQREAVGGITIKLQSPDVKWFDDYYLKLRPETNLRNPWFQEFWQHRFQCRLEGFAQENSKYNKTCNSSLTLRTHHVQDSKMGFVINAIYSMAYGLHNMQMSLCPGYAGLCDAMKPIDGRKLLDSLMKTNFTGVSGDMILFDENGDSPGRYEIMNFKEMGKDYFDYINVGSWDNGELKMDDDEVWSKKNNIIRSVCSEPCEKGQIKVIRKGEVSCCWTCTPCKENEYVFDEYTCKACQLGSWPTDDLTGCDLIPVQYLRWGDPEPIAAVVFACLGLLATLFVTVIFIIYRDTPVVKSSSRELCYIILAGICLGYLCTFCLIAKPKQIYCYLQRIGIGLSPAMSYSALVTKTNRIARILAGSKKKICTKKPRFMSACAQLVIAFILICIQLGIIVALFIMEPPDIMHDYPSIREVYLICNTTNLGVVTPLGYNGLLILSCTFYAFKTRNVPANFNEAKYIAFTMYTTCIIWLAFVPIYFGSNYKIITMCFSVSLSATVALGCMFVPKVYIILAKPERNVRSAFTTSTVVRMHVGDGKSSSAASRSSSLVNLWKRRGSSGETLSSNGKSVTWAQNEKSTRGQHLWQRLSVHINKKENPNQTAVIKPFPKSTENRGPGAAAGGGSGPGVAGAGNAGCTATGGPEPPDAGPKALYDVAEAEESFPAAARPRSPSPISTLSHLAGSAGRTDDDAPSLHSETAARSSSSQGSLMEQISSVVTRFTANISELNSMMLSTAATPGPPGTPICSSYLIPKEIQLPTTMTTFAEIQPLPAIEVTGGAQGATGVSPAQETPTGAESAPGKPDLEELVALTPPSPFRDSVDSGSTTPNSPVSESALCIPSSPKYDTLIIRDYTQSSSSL
Nature of the series: mGluR5 calcium mobilization assay (FDSS, Fluo-4) in HEK 293A cells stably expressing rat mGluR5. Format: cell-based. The conditions noted are these: HEK cells transfected with rat mGluR5; antagonism of glutamate EC80 response; ± = standard error of at least three experiments. As for the experimental part:
Human embryonic kidney (HEK) cells transfected with rat or human mGluR5 were plated in clear bottom assay plates for assay in a Functional Drug Screening System (FDSS). The cells were loaded with a Ca^2+-sensitive fluorescent dye (e.g., Fluo-4), and the plates were washed and placed in the FDSS instrument. Test compound was applied to cells 3 seconds after baseline readings were taken. Cells were incubated with the test compounds for 140 seconds and then stimulated with an EC20 concentration of an mGluR5 agonist (e.g., glutamate, 3,5-dihydroxyphenylglycine, or quisqualate); 60-80 seconds later an EC80 concentration of agonist was added and readings taken for an additional 40 seconds. Data were collected at 1 Hz. […] Concentration response curves were generated using a four parameter logistical equation.
The above described assay was operated in two modes. In the first mode (utilizing a triple add protocol), a range of concentrations of the present compounds were added to cells, followed by two single fixed concentrations of agonist (EC20 followed by EC80). If a compound acted as a potentiator, an EC50 value for potentiation of the EC20 response and a maximum extent of potentiation by the compound at this concentration of agonist was determined by non-linear curve fitting. If a compound acted as an antagonist, an IC50 value for antagonism of the EC80 response and a maximum extent of antagonism by the compound at this concentration of agonist was determined by non-linear curve fitting. In the second mode (utilizing a double add protocol), several fixed concentrations of the present compounds were added to various wells on a plate, followed by a range of concentrations of agonist for each concentration of present compound; the EC50 values for the agonist at each concentration of compound were determined by nonlinear curve fitting. A decrease in the EC50 value of the agonist with increasing concentrations of the present compounds (a leftward shift of the agonist concentration-response curve) is an indication of the degree of mGluR5 positive allosteric modulation at a given concentration of the present compound. An increase in the EC50 value of the agonist with increasing concentrations of the present compounds (a rightward shift of the agonist concentration response curve) is an indication of the degree of mGluR5 antagonism at a given concentration of the present compound. The second mode also indicates whether the present compounds also affect the maximum response to mGluR5 to agonists.
The mGluR5 activity was determined using the calcium mobilization assays in human embryonic kidney cells as described herein below, wherein the human embryonic kidney cells were transfected with rat mGluR5. The mGluR5 activity data for some compounds are shown as the average of at least three experiments with the standard error in these cases. If no error is indicated for the mGluR5 activity, the values given represent the results from a single experiment or the average of two experiments. The compounds in Table 1 were synthesized with methods identical or analogous to those shown herein. The requisite starting materials were commercially available, described in the literature, or readily synthesized by one skilled in the art of organic synthesis.
GluMax is the amplitude of response in the presence of 30 μM test compound as a percentage of maximal response (100 μM glutamate). Partial antagonists display concentration-response curves (CRCs) that plateau above 10%.
The preparation of rat mGluR5 stable cell-lines is as previously described (e.g. see Romano et al. J Biol. Chem. 1996 Nov. 8; 271(45):28612-6).
Regarding `O=C(Nc1ccc(F)cn1)c1cc(Oc2cncc(O)c2)cn2ncnc12`, the IC50 came out at 40 nM.

As to `O=C(Nc1nc(C(F)F)cs1)c1cc(Oc2cncnc2)cn2ncnc12`, the IC50 is 214 nM.

As to `COc1ccc(NC(=O)c2cc(Oc3cncc(Cl)c3)cn3ncnc23)nc1`, the IC50 is 92 nM.

Take `Cc1csc(NC(=O)c2cc(Oc3cnc(F)c(F)c3)cn3ncnc23)n1`: the IC50 was 119 nM.

As to `[2H]c1nc(NC(=O)c2cc(Oc3cccnc3)cn3ncnc23)c([2H])c([2H])c1[2H]`, the IC50 came out at 26 nM.

For the molecule `COc1cncc(Oc2cc(C(=O)Nc3ccc(C)cn3)c3nncn3c2)c1`, the IC50 is 3600 nM.

As to `Cc1ncc(Oc2cc(C(=O)Nc3cccc(F)n3)c3nncn3c2)cn1`, the IC50 is above 10000 nM.

For `O=C(Nc1ccccn1)c1cc(Oc2cncc(O)c2)cn2ncnc12`, the IC50 amounted to 44 nM.

`COc1ccc(NC(=O)c2cc(Oc3cncc(OC)c3)cn3ncnc23)nc1`: the IC50 is 331 nM.

`Cc1ncc(Oc2cc(C(=O)Nc3ccc(F)cn3)c3nncn3c2)cn1`: the IC50 is above 10000 nM.

`O=C(Nc1ccccn1)c1cc(Oc2cncc(F)c2F)cn2ncnc12`: the IC50 is 36 nM.

`Cc1nc(NC(=O)c2cc(Oc3cncc(F)c3)cn3ccnc23)ccc1F`: the IC50 came to 189 nM.

`COc1cncc(Oc2cc(C(=O)Nc3cccc(F)n3)c3nncn3c2)c1`: the IC50 was determined as 4130 nM.

With `CCc1cccc(NC(=O)c2cc(Oc3cncc(OC)c3)cn3cnnc23)n1` [drawing 282], the IC50 came out at 1420 nM.

Turning to `COc1ccc(NC(=O)c2cc(Oc3cncc(F)c3)cn3ncnc23)nc1`, the IC50 worked out at 68 nM.

For the molecule `Cc1ncc(Oc2cc(C(=O)Nc3ccccn3)c3nccn3c2)cn1`, the IC50 came out at 3310 nM.

On to `O=C(Nc1ccc(F)cn1)c1cc(Oc2cncc(Cl)c2)cn2ccnc12`, for which the IC50 came out at 76 nM.

For `COc1cncc(Oc2cc(C(=O)Nc3cccc(F)n3)c3ncnn3c2)c1`, the IC50 was 258 nM.

With `[2H]c1nc(NC(=O)c2cc(Oc3cncnc3)cn3cnnc23)c([2H])c([2H])c1[2H]`, the IC50 amounted to 469 nM.

Consider `COc1cncc(Oc2cc(C(=O)Nc3ccc(F)cn3)c3nccn3c2)c1`, for which the IC50 was 40 nM.

`COc1cncc(Oc2cc(C(=O)Nc3cccc(OC)n3)c3nncn3c2)c1`: the IC50 is above 10000 nM.

Take `Cc1ccc(NC(=O)c2cc(Oc3cncc(F)c3)cn3nc(C)nc23)nc1`: the IC50 amounted to 468 nM.

On to `O=C(Nc1nc(C2CC2)cs1)c1cc(Oc2cncnc2)cn2ncnc12`, for which the IC50 is 161 nM.

In general, IC50 refers to the concentration that inhibits the measured activity by half.

(Values after patent publication US9844542B2, “Substituted imidazopyridine and triazolopyridine compounds as negative allosteric modulators of mGluR5” (Vanderbilt University, priority 2013, dated 2017).)
